For 56 substances, Survival results are on record in ChEMBL document CHEMBL4665541, “Search for new therapeutic options for the uncommon pathogen Mycobacterium chimaera: an open drug discovery approach” (Lancet Microbe, 2021).

Assay type in all cases: functional, organism-based
What all share (parameters): conc 20 uM

Assay [1] relates to Mycobacteroides abscessus. The assay is described as follows: (§1) Inhibition of mycobacterial growth using the resazurin microtitre cell viability assay (REMA), compounds at final concentration of 20 µM (2% v/v DMSO). Hits were classed as compounds that inhibited bacterial growth by 70% or more compared to drug-free controls. The note with it: ATCC19977. For orientation: The colour change of resazurin is a common sign of viable cells or microbes.

For assay [2], the system named is Mycobacterium intracellulare subsp. chimaera. The assay is described as §1. To be noted: NCTC13781.
Assay [3] concerns Mycobacterium tuberculosis. The assay is described as §1. The note with it: H37Rv.

For the substance MMV010545, the values for the Survival in assay [1], in assay [2] and in assay [3] were 111%, 86.4% and 91.4%, respectively.
As for MMV010576, the Survival in assay [1] is 112%; in assay [2], 99%; in assay [3] it was 106%.
The corresponding values for MMV010764 are 101%, 94.1% and 88.8%.
For MMV011229, the Survival in assay [1] is 97.3%; in assay [2], 94%; in assay [3], 92.6%.
For MMV011511, the Survival is 112% in assay [1], 104% in assay [2] and 88% in assay [3].
In the case of MMV011691, the Survival in assay [1] was 104%; in assay [2], 103%; in assay [3], 86.2%.
As to MMV011765, the figures for the Survival in assay [1], in assay [2] and in assay [3] were 108%, 70.9% and 89.2%, respectively.
For the substance MMV011903, the results for the Survival in assay [1], in assay [2] and in assay [3] were 114%, 108% and 108%, respectively.
On to MMV012074, for which the Survival in assay [1] is 110%; in assay [2] it was 88.4%; in assay [3], 53.4%.
The corresponding values for MMV016136 are 118%, 108% and 107%.
The corresponding values for MMV016838 are 109%, 91.7% and 78.9%.
The corresponding values for MMV019087 are 111%, 92.7% and 74.9%.
Regarding MMV019189, the Survival in assay [1] is 97.2%; in assay [2] it was 97.4%; in assay [3], 77%.
In the case of MMV019234, the Survival in assay [1] is 125%; in assay [2] it was 92.9%; in assay [3] it was 78.1%.
As to MMV019551, the values for the Survival in assay [1], in assay [2] and in assay [3] were 103%, 90.1% and 77.8%, respectively.
The corresponding values for MMV019721 are 121%, 114% and 104%.
The corresponding values for MMV019742 are 103%, 97.5% and 96%.
The corresponding values for MMV019790 are 107%, 102% and 90.2%.
Take MMV019807: the Survival is 116% in assay [1], 118% in assay [2] and 97.4% in assay [3].
The corresponding values for MMV019838 are 124%, 81.2% and 84.2%.
The corresponding values for MMV019993 are 95.9%, 98.9% and 97%.
The corresponding values for MMV020081 are 118%, 87.7% and 89.4%.
Turning to MMV020120, the Survival is 122% in assay [1], 104% in assay [2] and 94.3% in assay [3].
Turning to MMV020136, the Survival in assay [1] is 129%; in assay [2] it was 88.5%; in assay [3], 88.7%.
The corresponding values for MMV020152 are 118%, 91.2% and 78.2%.
As for MMV020165, the Survival in assay [1] is 106%; in assay [2], 98.7%; in assay [3], 82.1%.
Turning to MMV020289, the Survival in assay [1] is 113%; in assay [2] it was 103%; in assay [3], 86.3%.
The corresponding values for MMV020291 are 121%, 103% and 90.7%.
The corresponding values for MMV020320 are 113%, 98.9% and 42.2%.
The corresponding values for MMV020321 are 115%, 91.7% and 90.7%.
In the case of MMV020388, the Survival in assay [1] is 113%; in assay [2], 102%; in assay [3], 88.5%.
As for MMV020391, the results for the Survival in assay [1], in assay [2] and in assay [3] were 108%, 91.8% and 95.4%, respectively.
The corresponding values for MMV020512 are 116%, 109% and 104%.
The corresponding values for MMV020517 are 123%, 94% and 79.9%.
With MMV020520, the Survival in assay [1] is 125%; in assay [2] it was 113%; in assay [3], 104%.
The corresponding values for MMV020537 are 105%, 62.7% and 94.1%.
In the case of MMV020591, the Survival in assay [1] is 113%; in assay [2], 112%; in assay [3] it was 106%.
The corresponding values for MMV020623 are 118%, 111% and 107%.
The corresponding values for MMV020670 are 110%, 93% and 99.7%.
As for MMV020710, the Survival in assay [1] is 123%; in assay [2], 95.7%; in assay [3] it was 86.9%.
The corresponding values for MMV020982 are 124%, 103% and 84.3%.
The corresponding values for MMV021013 are 108%, 88% and 100%.
On to MMV021057, for which the Survival in assay [1] was 126%; in assay [2], 110%; in assay [3], 96.6%.
On to MMV021375, for which the results for the Survival in assay [1], in assay [2] and in assay [3] were 111%, 93.8% and 89.6%, respectively.
The corresponding values for MMV021660 are 102%, 107% and 67.5%.
As for MMV022029, the Survival in assay [1] is 118%; in assay [2] it was 99.1%; in assay [3] it was 90.8%.
The corresponding values for MMV022236 are 119%, 109% and 109%.
For MMV022478, the Survival in assay [1] was 13.3%; in assay [2], 3.7%; in assay [3], 3.81%.
The corresponding values for MMV023183 are 119%, 104% and 88.3%.
As to MMV023227, the Survival was 106% in assay [1], 87.2% in assay [2] and 85.3% in assay [3].
The corresponding values for MMV023233 are 106%, 90.8% and 89.1%.
For MMV023370, the Survival in assay [1] was 109%; in assay [2], 107%; in assay [3], 102%.
The corresponding values for MMV023388 are 90.4%, 98% and 99.3%.
The corresponding values for MMV023860 are 117%, 90.3% and 84.6%.
The corresponding values for MMV023949 are 116%, 90.5% and 92.7%.
With MMV023953, the Survival in assay [1] was 104%; in assay [2], 93.7%; in assay [3], 100%.
